Measured values reported in patent publication US20240024500A1, “ELECTROSTATIC NANOPARTICLES AND USE THEREOF” (Westfaelische Wilhelms-Universitaet Muenster, priority 2020, published 2024).
Read-outs that look alike come from different tables or passages of the source.

Key:
[1] = molecular target: EGFR (epidermal growth factor receptor) on cells (UniProt P00533); test: cell-based or functional assay
HBL-1 DLBCL-cells = test: NSG-HBL1 xenograft model; settings: after treatment start
[2] = Cell-free vesicle formation, light/fluorescence microscopy; type: physicochemical; settings: charged vs uncharged cargo, modified vs unmodified antibody
Method: Based upon these measurements, we hypothesized that the antibody-protamine/free SMCC-protamine/siRNA complexes form outside cells and independently of a cellular context. […]
We further analysed the properties of the different conjugation products according to their capacity to form vesicular-structures without cells when these conjugation products were incubated with Alexa488-control-siRNA (FIG. 40 G-L) as well as with EGFR-positive A459 cells (FIG. 40 M-R). When cetuximab was conjugated with SMCC-protamine at ratios of 1:1 up to 1:10, no efficient cell-free vesicle formation could be observed (FIG. 40 G-I), while at the ratio 1:32, the vesicle formation was very abundant FIG. 40 J) and decreased at ratios 1:50 and 1:100 (FIG. 40 K-L). The internalisation capacity of these complexes was highest upon conjugation 1:32 (FIG. 40 P), decrease upon conjugation 1:10 (FIG. 40 O). […] This hinted at an optimal complex formation of cetuximab with SMCC-protamine of 1:32, since this lead to the most efficient conjugation, vesicle formation without cells and internalisation into cells.
To further elucidate the function of SMCC-protamine coupled to the antibody and as free molecule within the complex, we titrated the amount of SMCC-protamine added to the antibody-protamine-conjugates that were depleted from free SMCC-protamine by HPLC. […] We added different amounts of free SMCC-protamine and protamine alone to anti-EGFR-mAB-P (FIG. 41).

HBL-1 cells = test: Colony formation assay, HBL-1, ibrutinib-Cy3.5 cargo; type: cell-based
Method: Next, we planned functional assays for identifying the effectivity of the antibody-inhibitor-complexes. DLBCL tumor cells were seeded in methylcellulose to form anchorage-free colony growth as a substitute marker for tumorigenicity. Assays were treated with combinations of antibody-inhibitor complexes and compared with appropriate control groups.
This colony-assay is used for quantification of anchorage-independent clonal cell growth and is a standard in vitro surrogate for tumorigenicity in vivo.

Row | Alexa488-siRNA shuttled into RD cells (FACS) [1] | internalisation of Alexa488-siRNA into RD cells (FACS) [1] | nanoparticle formation with antibody carriers ([2]; listed as uncharged ibrutinib) | Compound | day by which all / the last mice had to be sacrificed (HBL-1 DLBCL-cells) | nanoparticle formation with antibody carriers [2] | colony formation of HBL-1 cells (HBL-1 cells) | colony formation of HBL-1 cells (HBL-1 cells; listed as unconjugated rituximab) | colony formation of HBL-1 cells (HBL-1 cells; listed as unmodified rituximab (αCD20-mAB))
1 | > 90 % of cells | < 90 % of cells |  | cetuximab-SMCC-protamine conjugate (anti-EGFR-mAB-protamine, used with free SMCC-protamine) (antibody) |  |  |  |  | 
2 |  |  | not | C=CC(=O)N1CCC[C@@H](n2nc(-c3ccc(Oc4ccccc4)cc3)c3c(N)ncnc32)C1 [ibrutinib, 1-[(3R)-3-[4-amino-3-(4-phenoxyphenyl)pyrazolo[3,4-d]pyrimidin-1-yl]piperidin-1-yl]prop-2-en-1-one] | 20 days | not seen | much lesser degree |  | 
3 |  |  |  | rituximab: anti-CD20 antibody | ≤ 16 days | not seen |  | only a mild effect | not
